Measurements taken from patent publication US8575116B1, “Polyacetylenic compounds for protecting against pancreatic islet atrophy” (Academia Sinica, priority 2010, dated 2013).
Each block holds one compound with its values, some of them ahead of it.

What was measured:
HIT-T15 cells = assay: Insulin secretion of β-cell line with PMA, GF109203X and cytopiloyne (ELISA); assay type: cell-based, rat; settings: FIG. 6A
[1] = system: human insulin promoter in HIT-T15 β-cells; assay: Insulin promoter (phINS-Luc) dual luciferase assay in HIT-T15 β-cells; assay type: cell-based, rat; settings: FIG. 6C
Experimental: FIGS. 4A-C show an increase in insulin mRNA and protein content by cytopiloyne in pancreatic islet cells. (A) HIT-T15 β-cells transfected with phINS-Luc and pRL-TK plasmids were incubated with vehicle (NS), glimepiride (GLM, 10 μM), high glucose (HG, 16.7 mM) or cytopiloyne at 7, 14 or 28 μM. Ten μg of cell lysates from these cells underwent to dual luciferase assays. […] (C) Rat pancreatic islet cells were treated with vehicle, glucose (3.3 mM (LG) or 16.7 mM (HG)) or cytopiloyne (CP, 7, 14 and 28 μM) in the presence of brefeldin A for 24 h. After anti-insulin antibody staining, these cells underwent FACS analysis. The percentage of insulin-positive β-cells is shown. All the results from 3 independent experiments are expressed as mean±SEM, and P<0.05 was considered to be statistically significant (*).
(A) RIN-M5F cells were grown in medium with 16.7 mM (HG) or 3.3 mM glucose (LG) in the presence of PMA. GF and cytopiloyne. The insulin level of the supernatants was determined using an ELISA kit. (B) RIN-M5F cells were transfected with 5 μg of dominant-negative PKCα or control plasmid grown in medium with 16.7 mM (HG) or 3.3 mM glucose (LG) in the presence of PMA (1 μM), GF109203X (3 μM) or cytopiloyne. The insulin level of the supernatants was determined using an ELISA kit. (C) HIT-T15 cells were transfected with phINS-Luc and pRL-TK plasmids. The cells were grown in medium with 16.7 mM (HG) or 3.3 mM glucose (LG) in the absence or presence of PMA, GF109203X and cytopiloyne. The cell lysates were subjected to dual luciferase assays. (D) HIT-T15 cells were transfected with vehicle or dominant-negative PKCα plasmid together with phINS-Luc and pRL-TK plasmids. The cells were grown in medium with 16.7 mM (HG) or 3.3 mM glucose (LG) in the absence or presence of PMA and cytopiloyne. The cell lysates were subjected to dual luciferase assays.
Plasmids phINS-Luc and pRL-TK contain a human insulin promoter (2347 bp) from phINS-DCR3 vector linked to a firefly luciferase gene and the thymidine kinase promoter linked to Renilla luciferase reporter gene, respectively. Dominant-negative PKCα, phINS-Luc and/or pRL-TK were transfected into HIT-T15 cells with lipofectamine or electroporation.

RIN-m5F cells = assay: DAG and cholesterol generation (3H-myristic acid, TLC) in RIN-m5F cells; assay type: cell-based, rat; settings: versus vehicle control, glucose 16.7 mM
Experimental: (§1) FIGS. 5A-D show the effects of cytopiloyne on calcium mobilization, DAG generation and PKCa activation. (A) After Fura 2-AM loading, RIN-m5F cells were stimulated with 16.7 mM glucose (HG) and cytopiloyne at 7, 14 and 28 μM. Level of intracellular calcium, as shown by the 340/380 nm ratio, was detected using a fluorescence spectrophotometer. (B) RIN-m5F cells were pulsed with ^3H-myristic acid (5 Cim1^−1) for 16 hours. After washing, the cells were stimulated with glucose, cytopiloyne, PMA and glimepiride. Total lipids were separated on a silica thin layer plate. DAG and cholesterol were visualized with iodine vapor and identified by their standards. (C) RIN-m5F cells were incubated with vehicle (Mock), cytopiloyne (CP, 3, 7 and 14 μM), PMA (1 μM) and 16.7 mM (HG). Membrane or cytosolic proteins were subjected to Western blot with anti-PKCα and anti-Actin antibodies. (D) RIN-m5F cells were incubated with vehicle (Mock), cytopiloyne (CP 7 μM) and PMA (1 μM). After lysis, total lystaes were subjected to Western blot with anti-PKCα, anti-phospho-PKCα and anti-Actin antibodies.
RIN-m5F cells were incubated with ^3H-myristic acid ([…]) for 16 hours. After washing, the cells were treated with glucose, cytopiloyne, PMA and glimepiride. Total lipids were extracted as previously described. Radioactive DAG was separated on a silica thin layer plate with the first developer of ethylacetate: acetic acid: triethylpentane (9:2:5) and the second developer of hexane: diethylether: methanol: acetic acid (90:20:3:2). The spot of DAG was visualized with iodine vapor and identified by DAG standard.

PKCα = PKCα translocation and phosphorylation (Western blot) in RIN-m5F cells; assay type: cell-based, rat; settings: PMA 1 μM, glucose 16.7 mM
Experimental: as §1

STZ-treated C57BL mice [2] = assay: Insulin sensitizer test: oral dose before insulin injection in STZ-treated C57BL mice; assay type: in vivo, mouse; settings: cytopiloyne 0.5 and 2.5, glimepiride 2.5, metformin 60 mgkg^−1 oral; insulin 2.5 IUkg^−1
Experimental: (§2) FIGS. 3A-C show cytopiloyne-mediated insulin release depends on pancreatic islet cells. (A) Rat pancreatic islet cells were incubated with glucose-free KRB buffer containing vehicle or cytopiloyne at 1.5, 3, 7, 14, 28 and 42 μM (FIG. 3A-i). Similarly, rat pancreatic islet cells were incubated with KRB buffer containing vehicle, glimepiride (GLM, 10 μM) or cytopiloyne at 1.5, 3, 7, 14, 28 and 42 μM in the presence of 3.3 mM glucose (LG, FIG. 3A-ii) or 16.7 mM glucose (HG, FIG. 3A-iii). The insulin levels were determined using an insulin ELISA kit. The data presented as mean±SEM of 3 independent experiments. (B) Fed C57BL mice, which had already received an injection of STZ, were administered with an oral dose of vehicle, cytopiloyne (CP, 0.1, 0.5 and 2.5 mgkg^−1), and an intraperitoneal injection of insulin (Ins, 2.5 IUkg^−1). Blood sugar levels in the STZ-treated mice were determined using a glucometer. (C) C57BL mice, which had already received STZ, were orally administered with a single dose of vehicle, cytopiloyne (CP, 0.5 and 2.5 mgkg^−1), glimepiride (GLM, 2.5 mgkg^−1), or metformin (60 mgkg^−1), followed by an intraperitoneal injection with insulin (Ins). Blood sugar levels in the STZ-treated mice were determined using a glucometer. All the results from 3 independent experiments are expressed as mean±SEM, and P<0.05 was considered to be statistically significant (*). The number of mice (n) is indicated in parentheses.
To deplete pancreatic β-cells in mice, 6-week-old C57BL females (NLAC, Taipei, Taiwan) were intraperitoneally injected with STZ at 200 mgkg^−1. STZ-treated females with postprandial blood sugar over 500 mgdl^−1 were grouped. […] Blood glucose levels were monitored for 4 h. To distinguish sensitizer activity from releaser activity of cytopiloyne, STZ-treated C57BL mice were tube-fed with vehicle, glimepiride (2.5 mgkg^−1), metformin (60 mgkg^−1) or cytopiloyne (0.5 and 2.5 mgkg^−1) 1 h before insulin injection (2.5 IUkg^−1). Blood glucose levels in the mice were monitored from 0 to 4 h after insulin injection.

[3] = system: adipocyte protein 2 (aP2); assay: Real-time RT-PCR of aP2 mRNA relative to GAPDH in 3T3-L1 cells; assay type: cell-based, mouse; settings: mouse, 8 days, 1 μM
adiponectin = assay: Real-time RT-PCR of adiponectin mRNA relative to GAPDH in 3T3-L1 cells; assay type: cell-based, mouse; settings: mouse, 8 days, 1 μM
β-cell line = assay: Insulin secretion in β-cell line (unpublished data); assay type: cell-based
STZ-treated C57BL mice [4] = assay: Blood glucose in STZ-treated (β-cell-depleted) C57BL mice; assay type: in vivo, mouse; settings: cytopiloyne oral 0.1, 0.5 and 2.5 mgkg^−1; insulin i.p. 2.5 IUkg^−1
Experimental: as §2, with “(C) C57BL mice, which had already received STZ, were orally administered with a single dose of vehicle, cytopiloyne (CP, 0.5 and 2.5 mgkg^−1), glimepiride (GLM, 2.5 mgkg^−1), or metformin (60 mgkg^−1), followed by an intraperitoneal injection with insulin (Ins).” left out, “The number of mice (n) is indicated in parentheses.” left out
To deplete pancreatic β-cells in mice, 6-week-old C57BL females (NLAC, Taipei, Taiwan) were intraperitoneally injected with STZ at 200 mgkg^−1. […] Blood glucose levels were monitored for 4 h. […] Blood glucose levels in the mice were monitored from 0 to 4 h after insulin injection.

Compound: CN(C)CCCn1cc(C2=C(c3c[nH]c4ccccc34)C(=O)NC2=O)c2ccccc21 [GF109203X]
- effect of PKC inhibitor on induced insulin secretion (HIT-T15 cells; with cytopiloyne or PMA): inhibited cytopiloyne- and PMA-induced insulin secretion
- effect of PKC inhibitor on mediated insulin transcription ([1]; with cytopiloyne, glucose or PMA): completely abolished cytopiloyne-, glucose- and PMA-mediated insulin transcription

Compound: CCCCCCCCCCCCCC(=O)O[C@@H]1[C@@H](C)[C@@]2(O)[C@@H](C=C(CO)C[C@]3(O)C(=O)C(C)=C[C@@H]23)[C@@H]2C(C)(C)[C@]12OC(C)=O [PMA, phorbol 12-myristate 13-acetate, reference compound]
- level of DAG (RIN-m5F cells): significantly increased the level of DAG
- insulin secretion in β-cell line (HIT-T15 cells; glucose 16.7 mM): stimulated insulin secretion
- insulin transcription in HIT-T15 cells ([1]; glucose 16.7 mM): stimulated insulin transcription
- phosphorylation of PKCα (PKCα; cytopiloyne 7 μM): increased phosphorylation of PKCα
- translocation of PKCα from cytoplasm to membrane (PKCα; cytopiloyne 3, 7 and 14 μM): increased the translocation of PKCα from cytoplasm to membrane

Compound: CN(C)C(=N)N=C(N)N [metformin]
- blood sugar lowering when dosed 60 min before insulin injection (STZ-treated C57BL mice [2]): significantly reduced blood glucose levels

- aP2 expression, times of the control [3]: 11 times
- adiponectin expression level, times control levels (adiponectin): 21 times
Compound: CN(CCOc1ccc(CC2SC(=O)NC2=O)cc1)c1ccccn1 (stereo not shown) [rosiglitazone]

Compound: cytopiloyne aglycone
- induction of insulin secretion relative to cytopiloyne (β-cell line): less effective than cytopiloyne in inducing insulin secretion
- insulin secretion in β-cell line (β-cell line): did stimulate insulin secretion in β-cell line to some extent

Compound: insulin: Insulin purchased from Novo Nordisk, injected intraperitoneally
- reduction of hyperglycemia / blood glucose in β-cell-depleted mice (STZ-treated C57BL mice [4]): still diminished blood glucose levels
